Usually MIC stands for the smallest concentration in the dilution series that meets the test's criterion for growth inhibition.

The values that follow come from article PMC12584665, “In vitro and in vivo efficacy of vancomycin against Elizabethkingia species and the impact of increased vancomycin MICs” (Microbiology Spectrum, 2025).

The structures appear in SMILES notation. Read-outs that look alike come from different tables or passages of the source.

The test system of series [1] is Elizabethkingia anophelis. Briefly: Murine neutropenic thigh infection model. The class given is in vivo, C57BL/6J mice. On the procedure:
(§1) In vivo efficacy was assessed by wax moth (Galleria mellonella), murine pneumonia, and murine thigh infection models following the protocols of our previous study ([2]). The Animal Ethics Committee of Taiwan’s National Health Research Institutes approved the murine pneumonia and thigh infection models.
For the thigh infection model, seven-week-old C57BL/6J mice were rendered neutropenic by intraperitoneal injections of cyclophosphamide (Cytoxan; Bristol-Myers Squibb, Princeton, NJ, USA) 4 days (150 mg/kg) and 1 day (100 mg/kg) before bacterial inoculation. A 30 µL aliquot containing the E. anophelis (10^7 cfu) was injected into each of the two rear thighs. Vancomycin (25 mg/kg or 100 mg/kg, subcutaneous) or teicoplanin (50 mg/kg, intraperitoneal) was administered 2 h and 14 h after inoculation. Mice were sacrificed 24 h post-inoculation, and homogenized thigh tissue was plated in serial 10-fold dilutions on brain-heart infusion agar to determine bacterial counts. Each mouse, not each thigh, was considered an individual data point.

Series [2] has as its system Elizabethkingia anophelis. Put plainly: Murine pneumonia model. The class given is in vivo, C57BL/6J mice. Conditions: for survival of infected mice: 8 mice per group. On the procedure:
as §1
(§2) For the pneumonia model, a bacterial suspension was mixed with 5% mucin from porcine stomach (type 3; Sigma-Aldrich, Saint Louis, USA). Seven-week-old C57BL/6J mice were anesthetized with isoflurane for 10 min. For each strain, the inoculum corresponded to the lowest dose that caused >80% mortality in preliminary testing. This inoculum (10⁶–10⁸ cfu, depending on strain) was delivered intratracheally to induce pneumonia. Two hours thereafter, mice received either high or human-equivalent doses of subcutaneous vancomycin (100 mg/kg or 25 mg/kg, respectively) or intraperitoneal teicoplanin (50 mg/kg) ([17]) twice daily for 3 days. Each group contained eight mice, and survival was monitored for 3 days.

The next series relates to E. meningoseptica. Briefly: Broth microdilution MIC of laboratory-induced mutants. The class given is cell-based. Conditions: Elizabethkingia meningoseptica. How it is done: (§3) E. anophelis and non-anophelis species with baseline vancomycin MICs of 16–32 mg/L (Table 2) were well characterized in our previous study ([7]) and were included in the induction study. The induction of mutants with elevated vancomycin MICs was modified from a previous study ([18]). Briefly, 10^9 cfu of wild-type E. anophelis (2008S01-229) was plated on brain heart infusion agar (Becton Dickinson, Franklin Lakes, NJ, USA) with twofold multiples of vancomycin (32 –256 mg/L). Isolates from viable colonies were subjected to broth microdilution. Genomic comparison between the parental strain (2008S01-229) and elevated-MIC mutants was performed to identify the mutated gene conferring increased vancomycin MIC. To determine whether similar genetic changes occurred in other Elizabethkingia species, non-anophelis isolates were subjected to the same induction protocol. The corresponding target genes were then analyzed by Sanger sequencing to assess the presence of analogous mutations. The target gene related to elevated vancomycin MICs was also validated via scarless gene editing.

The subject of a further series is E. bruuniana. The description is as above. The class given is cell-based. How it is done:
as §3

Another series relates to E. miricola. Described as above. The class given is cell-based. How it is done:
as §3

The test system of another series is E. ursingii. Described as above. The class given is cell-based. On the procedure:
as §3

The subject of series [3] is Acinetobacter baumannii (LAC-4). Put plainly: Murine pneumonia model (model validation). The class given is in vivo, C57BL/6J mice. Particulars: 8 mice per group. On the procedure: as §2
The nature of series [4]: Serum drug levels in mice (LC-MS/MS). The class given is in vivo. Conditions: single dose 25 mg/kg subcutaneous, mice, LC-MS/MS; in contrast to 100 mg/kg; 6 to 8 mice per group. On the procedure:
Fifty microliters of aliquots of murine serum was mixed with 100 µL acetonitrile. The mixture was vortexed and then centrifuged at 15,000 × g for 20 min in a Beckman Coulter Microfuge 22R Centrifuge at room temperature. The supernatant was transferred to a clean tube, and then 15 µL of the supernatant was injected onto LC-MS/MS. The chromatographic system consisted of an Agilent 1200 series LC system and an Agilent ZORBAX Eclipse XDB-C8 column (5 µm, 3.0 × 150 mm) interfaced to an MDS Sciex API3000 tandem mass spectrometer. The MS/MS ion transitions monitored were m/z 725/144 for vancomycin. A gradient HPLC method was employed for separation. Mobile phase A consisted of 10 mM ammonium acetate aqueous solution containing 0.1% formic acid and mobile phase B consisted of acetonitrile. The gradient profile was as follows (min/%B): 0.0–0.9/5, 1.0–2.0/50, 2.1–3.7/95, 3.8–5.0/5. The flow rate was set at 1.5 mL/min.

In series [5] the test system is Elizabethkingia anophelis. Put plainly: Time-kill assay. The class given is cell-based. Particulars: triplicate; for growth in time-kill assay: five clinical isolates, MH broth, ~5 x 10^5 CFU/mL, 37°C. On the procedure:
Time-kill assays were performed as previously described with modifications ([10]). Each 250 mL flask containing 30 mL MH broth (Becton Dickinson, Franklin Lakes, NJ, USA) was inoculated to achieve an initial bacterial density of ~5 × 10⁵ CFU/mL. Cultures were incubated at 37°C with shaking at 200 rpm. Vancomycin or teicoplanin (Sigma-Aldrich, Saint Louis, MO, USA) was added at final concentrations of 4 or 16 mg/L. At designated time points, 100 µL of samples was removed, serially diluted in sterile saline, and plated on MH agar for CFU enumeration after overnight incubation at 37°C. No washing steps were performed prior to plating; given the culture volume and dilution scheme, antibiotic carryover was expected to be negligible. All experiments were performed in triplicate.

The mark [6] stands for this setting: 100 mg/kg twice daily, infection by 2008S01-229-VAN-R compared to 2008S01-229.

Take `CN[C@H](CC(C)C)C(=O)N[C@H]1C(=O)N[C@@H](CC(N)=O)C(=O)N[C@H]2C(=O)N[C@H]3C(=O)N[C@H](C(=O)N[C@H](C(=O)O)c4cc(O)cc(O)c4-c4cc3ccc4O)[C@H](O)c3ccc(c(Cl)c3)Oc3cc2cc(c3O[C@@H]2O[C@H](CO)[C@@H](O)[C@H](O)[C@H]2O[C@H]2C[C@](C)(N)[C@H](O)[C@H](C)O2)Oc2ccc(cc2Cl)[C@H]1O` [Vancomycin]: the “bacterial loads in thigh” value in series [1] (25 mg/kg subcutaneous 2 h and 14 h after inoculation, neutropenic mice, 24 h, all clinical strains, 4 mice per group) is recorded as “modestly reduced the bacterial loads”. Besides, the “bacterial load in thigh” value in series [1] (100 mg/kg subcutaneous 2 h and 14 h after inoculation, neutropenic mice, 24 h, compared with 25 mg/kg) is “greater reduction of bacterial load”. For the same molecule, the “reduction of bacterial load” value in series [1] (setting [6]) is recorded as “hampered”. Besides, the “survival of infected mice” value in [2] (25 mg/kg subcutaneous twice daily for 3 days, from 2 h after intratracheal inoculation, all clinical strains except 2014C06-157) is on record as “significantly improved the survival or delayed death”; in [2] (100 mg/kg subcutaneous twice daily for 3 days), “conferred a survival benefit”. The “in vivo efficacy against one isolate” value in [2] (25 mg/kg, one isolate with similar MIC (2014C06-157)) is listed as “ineffective”. For the same molecule, the “improvement of murine survival” value in series [2] (setting [6]) was “hampered”. In addition, the MIC in the series with E. meningoseptica (induced E. meningoseptica mutants, pbp4 827DelA, Frameshift, 2 isolates, one value each) worked out at 64 µg/mL; in the series on E. meningoseptica (wild-type E. meningoseptica parent strain, read-out: Parent strain MIC) it was 16 µg/mL; in the series on E. bruuniana, 256 µg/mL; in the series on E. bruuniana (wild-type E. bruuniana parent strain, read-out: Parent strain MIC), 16 µg/mL; in the series with E. miricola, 512 µg/mL; in the series on E. miricola (wild-type E. miricola parent strain, read-out: Parent strain MIC) it was 32 µg/mL. The MIC was found to be 256 µg/mL in the series on E. ursingii; 32 µg/mL in the series with E. ursingii (wild-type E. ursingii parent strain, read-out: Parent strain MIC); 256 µg/mL in the series on E. ursingii ({}). The “survival of A. baumannii-infected mice” value in [3] (100 mg/kg subcutaneous twice daily) is reported as “did not improve the survival”. Further, the “activity in A. baumannii pneumonia model” value in [3] (25 or 100 mg/kg subcutaneous twice daily, A. baumannii LAC-4) is “Lack of vancomycin (VAN) activity”. Moreover, the serum concentration-time profile result in [4] is given as “resembled that of humans”. Further, the “growth in time-kill assay” value is recorded as “did not inhibit the growth” in series [5] (4 mg/L) and “Growth was inhibited at a higher level (16 mg/L) at 6 h but increased thereafter” in series [5] (16 mg/L). The time-kill assay result in series [5] (4 or 16 mg/L, mutant 2008S01-229-VAN-R) was “no effect”.
